Experimental data as given in patent US7074765B2, “Synthetic peptide analogs of Arg-Pro-Pro-Gly-Phe as selective inhibitors of thrombin and thrombin activation of protease activated receptors 1 and 4” (The Regents of the University of Michigan, priority 2003, dated 2006).

Key:
[1] = test system: normal human citrated plasma; test: thrombin clotting time (TCT); assay type: biochemical; details: normal human plasma; p<0.05
Protocol: The influence of the various peptide formulations used in the present invention on established coagulation-based assays was determined. The activated partial thromboplastin time (APTT) is performed by mixing 0.05 ml normal human citrated plasma with 0.05 ml activated partial thromboplastin reagent purchased from Organon Teknika, Research Triangle Park, N.C. in the absence or presence of a peptide inhibitor. After incubation for 5 min at 37° C., the mixture is recalcified with 0.05 ml of 30 mM calcium chloride and the time to clot formation is measured in an Amelung KC4A instrument (Sigma Chemical Corp, St. Louis, Mo.) (Hasan et al. Thrombosis and Haemostasis. 82, 1182–1187 (1999)). The prothrombin time (PT) is performed by mixing 0.05 ml normal human citrated plasma with 0.05 ml Simplastin (Organon Teknika, Research Triangle Park, N.C.) followed by incubation for 3 min at 37° C. in the absence or presence of a peptide inhibitor. At the addition of 0.05 ml of 30 mM calcium chloride, the time to clot formation is measured in an KC4A instrument (Sigma Chemical Corp, St. Louis, Mo.) (Hasan et al. Thrombosis and Haemostasis. 82, 1182–1187 (1999)). The thrombin clotting time (TCT) is performed by adding 0.1 ml normal human citrated plasma in the absence or presence of a peptide inhibitor and 0.05 ml of a α-thrombin solution such that the final concentration of the thrombin in the entire mixture was 1 nM. Upon addition of the thrombin, the time to clot formation is measured in an KC4A instrument (Sigma Chemical Corp, St. Louis, Mo.). In FIG. 5, peptide TH146 produces a significant prolongation (p<0.05) of the activated partial thromboplastin time at 15 μM, of the prothrombin time at 60 μM, and the thrombin clotting time at 15 μM. In FIG. 6, peptide MAP4-TH146 produced a significant prolongation (p<0.05) of the activated partial thromboplastin time at 0.195 μM, of the prothrombin time at 3.125 μM, and the thrombin clotting time at 0.39 μM.

[2] = biological target: T1, recombinant protease activated receptor 1 extracellular domain (rPAR1EC) (Homo sapiens, UniProt P25116); test: Inhibition of RPPGF-biotin binding to rPAR1EC; details: 5 mM peptide, 50 μM RPPGF-biotin (FIG. 7); listed in decreasing order
T1 construct: A portion of the extracellular domain of human PAR1 (Ala^26-Ser^99) (rPAR1EC) was expressed in Escherichia coli; His10-DDDDK (pET19b) (N); made in house; host or cells: E. coli BL21(DE3), pET19b
T1 sequence (P25116 26-99): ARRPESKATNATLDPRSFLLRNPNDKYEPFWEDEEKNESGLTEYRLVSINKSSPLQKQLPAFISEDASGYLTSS

[3] = biological target: T2, α-thrombin cleavage of recombinant extracellular fragment of human PAR1 (rPAR1EC) (Homo sapiens, UniProt P00734); test: Inhibition of α-thrombin-induced cleavage of rPAR1EC; assay type: biochemical; details: 1 nM α-thrombin, 15 min, 37° C.
T2 construct: A portion of the extracellular domain of human PAR1 (Ala^26-Ser^99) (rPAR1EC) was expressed in Escherichia coli; with 1 nM of α-thrombin or 0.5 μg/mL thrombocytin (16.7 nM); His10-DDDDK (pET19b) (N); made in house; host or cells: E. coli BL21(DE3), pET19b (rPAR1EC)
Protocol: Thrombocytin is a snake venom enzyme that activates platelets by cleaving PAR1 at the thrombin cleavage site (Santos et al., FEBS Letters. 18, 3570–3577 (2000)). […] The ability of MAP4-rOicPGF to block thrombocytin cleavage of rPAR1EC was performed as follows. One μg of rPAR1EC in 0.01 mM Tris-HCL, 0.2 M NaCl, pH 8.0 was incubated at 37° C. for 15 min or 45 min with 1 nM of α-thrombin or 0.5 μg/mL thrombocytin (16.7 nM), respectively, in the absence or presence of 0.025 to 1 mM MAP4-rOicPGF. The reaction mixture was separated on SDS-PAGE and stained with Coomassie Brilliant Blue. The cleaved gel images were scanned using the software Scion Image, ScionCorp, Frederick, Md.

VCaP cells = test: α-thrombin-induced intracellular calcium mobilization in VCaP cells; assay type: cell-based; details: 2 nM α-thrombin
Protocol: FIG. 13 examines the influence of MAP4-TH146 on thrombin-induced calcium mobilization in two prostate cancer cell lines that functionally express PAR 1. In Panel A, the influence of MAP4-TH146 on 2 nM α-thrombin-induced intracellular calcium mobilization in VCaP cells. Calcium flux is abolished by […]. At 6.25 μM MAP4-TH146, there is full recovery of thrombin-induced calcium flux. In Panel B, the influence of MAP4-TH146 on 2 nM α-thrombin-induced intracellular calcium mobilization in PC3 cells. Calcium flux is abolished by 200 μM MAP4-TH146. At 1.56 μM MAP4-TH146, calcium flux recovers.

PC-3 cells = test: Thrombin-induced motility of prostate cancer cells (Boyden chamber); assay type: cell-based; details: 100 μM; 2 nM α-thrombin
Protocol: Motility assays are performed with a modified Boyden chamber (tissue culture-treated, 6.5 mm diameter, 10 μm thickness, 8 μm pores). In the motility assays, 2.5×10^4 cells are plated in the top chamber of non-coated polyethylene teraphthalate (PET) membranes (24-well insert, pore size […]; Becton Dickinson). […] RPMI 10% fetal bovine serum is used as a chemoattractant in the lower chamber. […] The cells that transverse the membranes are stained with Dip-Quick (Jorgensen Laboratories, Loveland, Colo.). Cells in five random fields of view at 200× are counted and expressed as the average number of cells/field of view. […]

β-Ala-Lys-2Lys-4(D-Arg-Oic-Pro-Gly-Phe) [MAP4-rOicPGF]
concentration giving significant prolongation of the TCT [1]: 0.39 µM
blocking of RPPGF-biotin binding to rPAR1EC by peptides [2]: blocked
effect on α-thrombin cleavage of rPAR1EC [3]: inhibits thrombin and thrombocytin cleavage of rPAR1EC
effect on thrombin-induced calcium flux (VCaP cells; 6.25 μM peptide): full recovery
effect on thrombin-induced calcium flux (VCaP cells; 200 (unit not given) peptide): abolished
effect on thrombin-induced PC-3 cell motility (PC-3 cells): block
